Test results published in patent US20150353495A1 (PORTOLA PHARMACEUTICALS, INC., priority 2010, published 2015).

Legend:
[1] = test system: markers of allogeneic response (interferon gamma); conditions: kidney allograft patients; cited from earlier work
JAK3 = biological target: T1, JAK3 (Homo sapiens, UniProt P52333); assay: Z'-LYTE kinase assay JAK3; type: biochemical
T1 construct: 5 μl of catalytic domain recombinant Kinase enzyme+Tyr peptide substrate (Invitrogen, CA); purchased Invitrogen
In short: (§1)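 Catalytic-domain recombinant kinase was incubated with Tyr6 FRET peptide, ATP and compound (1% DMSO final) for 1 h at room temperature. Protease development followed for 1 h, cleaving only non-phosphorylated peptide. Inhibition of phosphorylation was read as coumarin/fluorescein FRET fluorescence.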

TYK2 = biological target: T2, TYK2 (Homo sapiens, UniProt P29597); assay: Z'-LYTE kinase assay TYK2; type: biochemical
T2 construct: 5 μl of catalytic domain recombinant Kinase enzyme+Tyr peptide substrate (Invitrogen, CA); purchased Invitrogen
T2 sequence (P29597 897-1176 limits assumed): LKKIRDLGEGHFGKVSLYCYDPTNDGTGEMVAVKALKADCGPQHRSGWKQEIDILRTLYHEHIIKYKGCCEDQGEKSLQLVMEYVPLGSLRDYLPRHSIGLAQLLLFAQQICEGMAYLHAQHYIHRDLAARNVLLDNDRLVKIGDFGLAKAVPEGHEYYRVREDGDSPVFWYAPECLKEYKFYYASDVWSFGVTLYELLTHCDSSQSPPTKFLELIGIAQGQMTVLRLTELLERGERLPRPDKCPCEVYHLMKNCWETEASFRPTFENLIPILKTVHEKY
In short: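 Recombinant catalytic-domain TYK2 with Tyr6 peptide in Z′-LYTE FRET format, 1% DMSO final, kinase reaction 1 h at room temperature, then protease development 1 h. Fluorescence read at 445/520 nm (excitation 400 nm), percent phosphorylation vs no-inhibitor control, IC50 from 4-parameter logistic fit.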

JAK2 = biological target: T3, JAK2 (Homo sapiens, UniProt O60674); assay: Z'-LYTE kinase assay JAK2; type: biochemical
T3 construct: 5 μl of catalytic domain recombinant Kinase enzyme+Tyr peptide substrate (Invitrogen, CA); purchased Invitrogen
T3 sequence (O60674 849-1124 limits assumed): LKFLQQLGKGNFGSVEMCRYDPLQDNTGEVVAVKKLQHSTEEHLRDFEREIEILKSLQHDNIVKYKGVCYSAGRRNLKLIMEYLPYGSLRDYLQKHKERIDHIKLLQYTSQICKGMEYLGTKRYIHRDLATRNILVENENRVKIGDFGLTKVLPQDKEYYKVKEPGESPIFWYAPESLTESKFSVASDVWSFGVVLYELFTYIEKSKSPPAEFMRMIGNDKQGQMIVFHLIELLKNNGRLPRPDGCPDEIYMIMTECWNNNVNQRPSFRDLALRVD
In short: as §1

JAK1 = biological target: T4, JAK1 (Homo sapiens, UniProt P23458); assay: Z'-LYTE kinase assay JAK1; type: biochemical
T4 construct: 5 μl of catalytic domain recombinant Kinase enzyme+Tyr peptide substrate (Invitrogen, CA); purchased Invitrogen
T4 sequence (P23458 875-1153 limits assumed): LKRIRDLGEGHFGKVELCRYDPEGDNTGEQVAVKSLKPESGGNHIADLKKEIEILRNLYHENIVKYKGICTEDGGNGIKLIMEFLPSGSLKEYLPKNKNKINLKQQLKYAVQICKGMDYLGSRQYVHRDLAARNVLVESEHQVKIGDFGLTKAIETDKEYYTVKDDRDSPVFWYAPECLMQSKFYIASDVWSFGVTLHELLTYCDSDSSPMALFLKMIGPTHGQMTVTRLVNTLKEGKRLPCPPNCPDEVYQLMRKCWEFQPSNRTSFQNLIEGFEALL
In short: as §1

[2] = test system: JAK1/3 signaling to STAT6 in Ramos B cells; assay: IL4 stimulation of JAK1/3 signaling to STAT6 in Ramos B cells (pSTAT6 Y641, FACS); type: cell-based; conditions: Homo sapiens; for inhibition at 0.2 µM: 0.2 uM compound, read-out: IL-4/STAT6 in Ramos Percent Inhibition at 0.2 uM; for inhibition at 1 µM: 1.0 uM compound, read-out: IL-4/STAT6 in Ramos Percent Inhibition at 1.0 uM
In short: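 Ramos cells in 10% FCS medium were pre-treated 1 h with compound, stimulated 15 min with 15 ng IL4, fixed in 2% paraformaldehyde and methanol-permeabilized. Intracellular phospho-STAT6 Y641 was stained with PE-conjugated antibody and quantified by flow cytometry.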

[3] = test system: JAK1/3 signaling to STAT5 in primary T cells; assay: IL2 stimulation of JAK1/3 signaling to STAT5 in primary T cells (pSTAT5 Y694, FACS); type: cell-based; conditions: T-cell; for inhibition at 0.2 µM: 0.2 uM compound, read-out: IL-2/STAT5 Percent Inhibition at 0.2 uM; for inhibition at 1 µM: 1.0 μM compound, read-out: IL-2/STAT5 Percent Inhibition at 1.0 μM
Method: IL2 Stimulation of JAK1/3 Signaling to STAT5 in Primary T Cells:
The effect of JAK inhibitors on cytokine signaling pathways utilizing JAK3 was determined using an IL2 stimulation assay. IL2 engages a receptor complex that contains the IL2 receptor alpha and beta subunits, and the common gamma chain, to initiate activation of JAK1 and JAK3 leading to phosphorylation of STAT5 at tyrosine position 694. Lymphocytes are isolated from heparinized whole blood over a ficoll gradient, then resuspended in tissue culture media containing 10% fetal calf serum at 10×10̂6 cells/ml. 100 μl aliquots are pre-treated for 1 hour with various concentrations of compound, and then stimulated for 12 minutes with 100 U/ml IL2. The signaling reaction is terminated by fixing in 2% paraformaldehyde for 10 minutes at room temperature. Fixed cells are then washed and permeablized by suspension in 50% methanol (in PBS) at −80° C. Following overnight incubation at 4° C., cells are washed and resuspended in PBS containing 0.5% bovine serum albumin containing CD3-APC and pSTAT5 Y694-PE conjugated antibodies. After 1 hour incubation, cells are washed and the extent of STAT5 phosphorlyation in T cells is measured by FACS analysis.

[4] = biological target: T5, full length active recombinant SYK enzyme (Homo sapiens, UniProt P43405); assay: Inhibition of Syk tyrosine phosphorylation activity (LANCE TR-FRET); type: biochemical
T5 construct: full length active recombinant SYK enzyme (Millipore, Calif.); purchased Millipore
Source text: This example illustrates methods for evaluating the compounds of the invention, along with results obtained for such assays. The in vitro and in vivo human Syk activities of the inventive compounds can be determined by various procedures known in the art, such as a test for their ability to inhibit the activity of human plasma Syk. […] The IC50 value is the concentration (in nM) of the compound required to provide 50% inhibition of human Syk proteolytic activity.
An in vitro assay for detecting and measuring inhibition activity against Syk is as follows:
Inhibition of Syk Tyrosine Phosphorylation Activity
Potency of candidate molecules for inhibiting Syk tyrosine phosphorylation activity is assessed by measuring the ability of a test compound to inhibit Syk-mediated tyrosine phosphorylation of a Syk-specific substrate.
SYK tyrosine phosphorylation activity is measured using the LANCE™ Technology developed by Perkin Elmer Life and Analytical Sciences (Boston, Mass.). LANCE™ refers to homogeneous time resolved fluorometry applications using techniques such as time-resolved fluorescence resonance energy transfer assay (TR-FRET) (see generally for procedures in Perkin Elmer Application Note-How to Optimize a Tyrosine Kinase Assay Using Time Resolved Fluorescence-Based LANCE Detection, wwww.perkinelmer.com/lifesciences). The assay principle involves detection of a phosphorylated substrate using energy transfer from a phosphospecific europium-labeled antibody to streptavidin-allophycocyanin as an acceptor.
To test the ability of candidate molecules to inhibit SYK tyrosine phosphorylation activity, molecules are reconstituted in 30% DMSO and serially diluted 1:3 with the final dilution containing DMSO in the absence of the candidate molecule. The final DMSO concentration in the assay is 3%. Kinase assays are performed as a two part reaction. The first reaction is a kinase reaction and which comprises of a candidate molecule, full length active recombinant SYK enzyme (Millipore, Calif.) and biotin-labeled SYK-specific substrate biotin-[…]-OH. The second reaction involves termination of the kinase reaction and the simultaneous addition of the detection reagents-europium-labeled anti-phosphotyrosine reagent (Eu-W1024-PY100, Perkin Elmer, Boston, Mass.) and Streptavidin-Allophycocyanin detection reagent (SA-APC, Prozyme, CA). The kinase reaction is performed in a black U-bottom 96-well microtitre plate. The final reaction volume is 50 μL and contains a final concentration of 1 nM active SYK enzyme, 550 nM SYK-substrate, and 100 nM ATP diluted in a buffer containing 50 mM Tris pH 7.5, 5 mM MgCl2, and 1 mM DTT. The reaction is allowed to proceed for 1 hour at room temperature. The quench buffer contains 100 mM Tris pH 7.5, 300 mM NaCl2, 20 mM EDTA, 0.02% Brij35, and 0.5% BSA. The detection reagents are added to the reaction mixture at the following dilutions-1:500 for Eu-W1024-PY100 and 1:250 for SA-APC. The kinase reaction is terminated by the addition of 50 μL quench buffer containing the detection reagents. […] Detection of the phosphorlated substrate in the absence and presence of inhibitors is measured in the TR-FRET instrument, Analyst HT (Molecular Probes, Sunnyvale, Calif.) and the condition for measurements are set up using CriterionHost Release 2.0 (Molecular Probes, Sunnyvale, Calif.). […] Inhibition of SYK-tyrosine kinase activity is calculated as the maximum response observed in the presence of inhibitor, compared to that in the absence of inhibitor. […]

T1 sequence (P52333 822-1111 limits assumed): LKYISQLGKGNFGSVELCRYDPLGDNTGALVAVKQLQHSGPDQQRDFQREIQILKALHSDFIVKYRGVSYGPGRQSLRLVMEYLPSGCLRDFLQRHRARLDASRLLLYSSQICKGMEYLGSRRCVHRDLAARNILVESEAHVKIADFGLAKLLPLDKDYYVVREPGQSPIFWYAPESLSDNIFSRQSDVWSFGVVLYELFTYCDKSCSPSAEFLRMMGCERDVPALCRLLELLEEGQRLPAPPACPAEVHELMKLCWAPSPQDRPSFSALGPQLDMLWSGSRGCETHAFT

| Structure (SMILES) | markers of allogeneic response (interferon gamma) [1] | IC50 (JAK3) | IC50 (TYK2) | IC50 (JAK2) | IC50 (JAK1) | inhibition at 0.2 µM [2] | inhibition at 1 µM [2] | inhibition at 0.2 µM [3] | inhibition at 1 µM [3] | IC50 [4] |
| --- | --- | --- | --- | --- | --- | --- | --- | --- | --- | --- |
| C[C@H]1CCN(C(=O)CC#N)C[C@H]1N(C)c1ncnc2[nH]ccc12 [CP-690,550] | can be reduced |  |  |  |  |  |  |  |  |  |
| Cc1cc(Nc2cc(NCc3cccc(F)c3)c(C(N)=O)cn2)ccc1N1CCCC1=O [Example 61, 4-(3-fluorobenzylamino)-6-(3-methyl-4-(2-oxopyrrolidin-1-yl)phenylamino)nicotinamide] |  | 1 to 10 nM | 100 to 1000 nM | 10 to 100 nM | 100 to 1000 nM | 40% | 60% | 39% | 67% |  |
| NC(=O)c1cnc(Nc2cccc(OCCN3CCCC3)c2)cc1N[C@H](CO)c1ccccc1 [Example 59, (S)-4-(2-hydroxy-1-phenylethylamino)-6-(3-(2-(pyrrolidin-1-yl)ethoxy)phenylamino)nicotinamide] |  | 1 to 10 nM | > 1000 nM | 100 to 1000 nM | > 1000 nM | 11% | 27% | 12% | 50% |  |
| NC(=O)c1cnc(Nc2ccc(C3CCN(C(=O)C4CCOCC4)CC3)cc2)cc1NCc1ccccc1F [Example 119, 4-(2-fluorobenzylamino)-6-(4-(1-(tetrahydro-2H-pyran-4-carbonyl)piperidin-4-yl)phenylamino)nicotinamide] |  | 1 to 10 nM | 100 to 1000 nM | 10 to 100 nM | 100 to 1000 nM | 17% | 47% | 54% | 83% |  |
| CC(=O)N1CCN(c2ccc(Nc3cc(NCc4cccc(F)c4F)c(C(N)=O)cn3)cc2)CC1 [Example 256, 6-(4-(4-acetylpiperazin-1-yl)phenylamino)-4-(2,3-difluorobenzylamino)nicotinamide] |  | 1 to 10 nM | 100 to 1000 nM | 10 to 100 nM | 100 to 1000 nM | 37% | 64% | 69% | 100% |  |
| NC(=O)c1cnc(Nc2cccc(C(=O)N3CCCCC3)c2)cc1NCc1ccccc1 [Example 249, 4-(benzylamino)-6-(3-(piperidine-1-carbonyl)phenylamino)nicotinamide] |  | 10 to 100 nM | > 1000 nM | 100 to 1000 nM | 100 to 1000 nM | 23% | 32% | 12% | 29% |  |
| NC(=O)c1cnc(Nc2cccc(OCCN3CCOCC3)c2)cc1N[C@H](CO)c1ccccc1 [Example 230] |  | 1 to 10 nM |  | 100 to 1000 nM | > 1000 nM |  |  |  |  | > 1000 nM |
| CC(=O)N1CCN(c2ccc(Nc3ccc(C(N)=O)c(NC4CCC4)n3)cc2)CC1 [Example 1, 6-(4-(4-acetylpiperazin-1-yl)phenylamino)-2-(cyclobutylamino)nicotinamide] |  | 100 to 1000 nM |  | 100 to 1000 nM | 100 to 1000 nM |  |  |  |  | > 1000 nM |
| CC(=O)N1CCN(c2ccc(Nc3cc(N[C@H](CO)c4ccccc4)c(C(N)=O)cn3)cc2)CC1 [Example 231] |  | 1 to 10 nM |  | 100 to 1000 nM | > 1000 nM |  |  |  |  | > 1000 nM |
